These results are taken from patent US5594022A, “Tachykinin antagonists” (Warner-Lambert Company, priority 1994, dated 1997).

Where a name gives a salt, the structure may show the parent alone. Read-outs that look alike come from different tables or passages of the source.

Usually IC50 stands for the concentration that inhibits the measured activity by half.

In assay [1] the target is T1, NK1 receptor (Cavia porcellus, UniProt P30547).
T1 construct: guinea pig cerebral cortex membranes; from tissue; host or cells: guinea pig cerebral cortex membranes
The assay is described as follows: In vitro NK1 receptor binding ([125I] Bolton Hunter Substance-P, guinea pig cerebral cortex membranes). To be noted: [125I-BH]Substance-P 0.1 nM. As for the experimental part:
The compounds of the invention were also evaluated in three tachykinin binding assays.

Assay [2] addresses T1, NK1 receptor. As to the kind of experiment: Guinea pig plasma extravasation (antagonism of SPOMe-induced plasma protein extravasation in the bladder). To be noted: read-out: ID50, Guinea Pig Plasma Extravasation. Format: in vivo.
Assay [3] deals with T2, NK1 receptor (Guinea Pig Ileum) (Cavia porcellus, UniProt P30547).
T2 construct: Ileum; from tissue; host or cells: guinea pig ileum
As to the kind of experiment: NK1 antagonist activity, guinea pig ileum. To be noted: read-out: NK1 Antagonist Activity pkB/pA2, Guinea Pig Ileum (converted).

Assay [4] deals with T3, NK1 receptor (Guinea Pig Trachea) (Cavia porcellus, UniProt P30547).
T3 construct: Trachea; from tissue; host or cells: guinea pig trachea
The assay is described as follows: NK1 antagonist activity, guinea pig trachea. To be noted: read-out: NK1 Antagonist Activity pkB/pA2, Guinea Pig Trachea (converted).

Setting [5] is: read-out: Binding IC50, In Vitro NK1 Receptor Binding.
Setting [6] is: Binding IC50, In Vitro NK1 Receptor Binding.
The mark [7] stands for this setting: guinea pig bladder, IV, SPOMe-induced.

T2 sequence (P30547 whole entry): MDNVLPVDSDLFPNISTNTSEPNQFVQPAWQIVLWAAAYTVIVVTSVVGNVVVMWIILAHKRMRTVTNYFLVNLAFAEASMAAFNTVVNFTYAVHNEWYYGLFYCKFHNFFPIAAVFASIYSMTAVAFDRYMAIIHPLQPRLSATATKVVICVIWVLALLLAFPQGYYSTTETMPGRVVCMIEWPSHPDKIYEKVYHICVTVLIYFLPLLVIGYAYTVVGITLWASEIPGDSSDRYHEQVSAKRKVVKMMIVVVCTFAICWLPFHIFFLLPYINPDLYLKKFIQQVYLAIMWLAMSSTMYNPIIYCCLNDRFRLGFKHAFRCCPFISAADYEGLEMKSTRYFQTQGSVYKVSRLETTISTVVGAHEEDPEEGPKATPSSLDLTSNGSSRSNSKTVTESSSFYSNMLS
T1 sequence (P30547 whole entry): as above
T3 sequence (P30547 whole entry): as above

With `CC(NC(=O)[C@@](C)(Cc1c[nH]c2ccccc12)NC(=O)OCc1ccccc1)c1cc(C(F)(F)F)cc(C(F)(F)F)c1` (mixture of isomers) [Example 39, Phenylmethyl (R,RS)-[2-[[1-[3,5-bis(trifluoromethyl) -phenyl]ethyl]amino]-1-(1H-indol-3-ylmethyl)-1-methyl-2-oxoethyl]carbamate], on NK1 receptor [1] (setting [5]), the IC50 was found to be 10000 nM.
The same measure, in the same setting: then `C[C@H](NC(=O)[C@@](C)(Cc1c[nH]c2ccccc12)NC(=O)OCc1ccco1)c1ccccc1` (relative stereo) [Example 49, 2-Furanylmethyl [R,(R*,S*)]-[1-(1H-indol-3-ylmethyl) -1-methyl-2-oxo-2-[(1-phenylethyl)amino]ethyl]carbamate], with 120 nM; and `Cc1ccc(C(C)NC(=O)[C@@](C)(Cc2c[nH]c3ccccc23)NC(=O)OCc2ccccc2)cc1` (single isomer, unassigned) [Example 36, Phenylmethyl [1-(1H-indol-3-ylmethyl)-1-methyl-2-[[1-(4-methylphenyl)ethyl]amino]-2-oxoethyl]carbamate], with 70 nM; and `Cc1ccc(C(C)NC(=O)[C@@](C)(Cc2c[nH]c3ccccc23)NC(=O)OCc2ccccc2)cc1` (single isomer, unassigned) [Example 37, Phenylmethyl [1-(1H-indol-3-ylmethyl)-1-methyl-2-[[1-(4-methylphenyl)ethyl]amino]-2-oxoethyl]carbamate], with 290 nM.
Same read-out and setting: then `CN(Cc1ccccc1)C(=O)C(Cc1c[nH]c2ccccc12)NC(=O)OCc1ccccc1` (stereo not drawn) [Example 1], with 341 nM; and `CN(Cc1ccccc1)C(=O)[C@H](Cc1c[nH]c2ccccc12)NC(=O)OCc1ccccc1` [Example 3], with 218 nM; and `CC(NC(=O)C(Cc1c[nH]c2ccccc12)NC(=O)OCc1ccccc1)c1ccccc1` (stereo not drawn) [Example 4], with 198 nM.
Regarding `C[C@H](NC(=O)[C@@H](Cc1c[nH]c2ccccc12)NC(=O)OCc1ccccc1)c1ccccc1` [Example 6], the IC50 on NK1 receptor [1] (setting [5]) amounted to 75 nM.
Same read-out and setting: then `C[C@H](NC(=O)[C@H](Cc1c[nH]c2ccccc12)NC(=O)OCc1ccccc1)c1ccccc1` [Example 7], with 306 nM.
On NK1 receptor [1] (setting [6]), `C[C@H](NC(=O)[C@](C)(Cc1c[nH]c2ccccc12)NC(=O)OCc1ccccc1)c1ccccc1` [Example 16] had an IC50 of 702 nM.
In the case of `Cc1ccc(COC(=O)N[C@](C)(Cc2c[nH]c3ccccc23)C(=O)N[C@@H](C)c2ccccc2)cc1` [Example 22], the ED50 at NK1 receptor [2] (guinea pig, iv) stood at 0.64 mg/kg. The Kb was 15.8 nM in assay [3] and 100 nM in assay [4]. This compound also came in with an IC50 on NK1 receptor [1] (setting [6]) of 17 nM.
For `CN(C(=O)OCc1ccccc1)[C@@H](Cc1c[nH]c2ccccc12)C(=O)NCc1ccccc1` [Example 23], the IC50 at NK1 receptor [1] (setting [5]) is 168 nM.
Same read-out and setting: then `C[C@H](NC(=O)[C@H](Cc1c[nH]c2ccccc12)N(C)C(=O)OCc1ccccc1)c1ccccc1` [Example 24], with 185 nM.
Turning to `C[C@@H](NC(=O)[C@H](Cc1c[nH]c2ccccc12)N(C)C(=O)OCc1ccccc1)c1ccccc1` [Example 27], the IC50 on NK1 receptor [1] (setting [5]) was 306 nM.
As to `CN(C(=O)OCc1ccc(Cl)cc1)[C@@H](Cc1c[nH]c2ccccc12)C(=O)NCc1ccccc1` [Example 29], the IC50 at NK1 receptor [1] (setting [5]) came to 487 nM.
`O=C(N[C@@H](Cc1c[nH]c2ccccc12)C(=O)OCc1cc(C(F)(F)F)cc(C(F)(F)F)c1)OCc1ccccc1` [Example 35, Methyl N-[(phenylmethoxy)carbonyl]-, [3,5-bis(trifluoromethyl)phenyl]-L-tryptophan]: at NK1 receptor [1] (setting [5]), the IC50 was determined as 233 nM.
Turning to `CC(NC(=O)C(C)(Cc1c[nH]c2ccccc12)NC(=O)OCc1ccccc1)C1CCCCC1` (stereo not drawn) [Example 38, Phenylmethyl [R-(R*,R*)]-(2-[(1-cyclohexyethyl)amino]-1-(1H-indol-3-ylmethyl)-1-methyl-2-oxoethyl]carbamate], on NK1 receptor [1] (setting [5]), the IC50 is 100 nM.
For `COc1ccc(C(C)NC(=O)[C@@](C)(Cc2c[nH]c3ccccc23)NC(=O)OCc2ccccc2)cc1` (stereo partly drawn) [Example 40, Phenylmethyl (R,RS)-[1-(1H, indole-3-ylmethyl)-2-[[1-(4-methoxyphenyl)ethyl]amino]-1-methyl-2-oxoethyl]carbamate], the IC50 at NK1 receptor [1] (setting [5]) is 210 nM.
Turning to `C[C@H](NC(=O)[C@@](C)(Cc1c[nH]c2ccccc12)NC(=O)OCc1ccncc1)c1ccccc1` [Example 41], on NK1 receptor [1] (setting [5]), the 50% inhibitory concentration (IC50) is above 10000 nM.
Same read-out and setting: to `C[C@H](NC(=O)[C@@](C)(Cc1c[nH]c2ccccc12)NC(=O)OCc1ccsc1)c1ccccc1` [Example 42, 3-Thienylmethyl [R-(R*,S*)]-[(1H-indol-3-ylmethyl) -1-methyl-2-oxo-2-[(1-phenylethyl)amino]ethyl]carbamate] belongs 140 nM.
On the same count and under the same terms, to `C[C@H](NC(=O)[C@@](C)(Cc1c[nH]c2ccccc12)NC(=O)OCc1cccs1)c1ccccc1` [Example 43, 2-Thienylmethyl [R-(R*,S*)]-[1-(1H-indol-3-ylmethyl) -1-methyl-2-oxo-[(1-phenylethyl)amino]ethyl]carbamate] belongs 100 nM.
The same measure, in the same setting: then `C[C@H](NC(=O)[C@@](C)(Cc1c[nH]c2ccccc12)NC(=O)OC1CCc2ccccc21)c1ccccc1` (stereo partly drawn) [Example 44, 2,3-Dihydro-1H-inden-3-yl [R-(R*,S*)]-[1(1H-indol-3-ylmethyl)-1-methyl-2-oxo-2-[(phenylethyl)amino]ethyl]carbamate], with 110 nM; and `C[C@H](NC(=O)[C@@](C)(Cc1c[nH]c2ccccc12)NC(=O)OC1Cc2ccccc2C1)c1ccccc1` [Example 46, 2,3-Dihydro-1H-inden-2-yl [1-(1H-indol-3-ylmethyl) -1-methyl-2-oxo-2-[(1-phenylethyl)amino]ethyl]carbamate], with 110 nM.
Regarding `C[C@H](NC(=O)[C@@](C)(Cc1c[nH]c2ccccc12)NC(=O)OCc1ccccc1F)c1ccccc1` [Example 47, (2-Fluorophenyl) methyl [R-(R*,S*)]-[1-(1H-insol-3-ylmethyl)-1-methyl-2-oxo-[1-phenylethyl)amino]ethyl]carbamate], at NK1 receptor [2] (guinea pig, iv), the ED50 was 0.13 mg/kg. Moreover, the Kb was 3.98 nM in assay [3] and 50.1 nM in assay [4]. At NK1 receptor [1] (setting [6]), this compound registered an IC50 of 10 nM.
Turning to `C[C@H](NC(=O)[C@@](C)(Cc1c[nH]c2ccccc12)NC(=O)OCc1ccoc1)c1ccccc1` [Example 48, 3- Furanylmethyl [R-(R*,S*)]-[1-(1H-indol-3-ylmethyl) -1-methyl-2-oxo-2-[(1-phenylethyl)amino]ethyl]carbamate], the IC50 at NK1 receptor [1] (setting [5]) was found to be 230 nM.
As for `C[C@H](NC(=O)[C@@](C)(Cc1c[nH]c2ccccc12)NC(=O)OCc1cccc(F)c1)c1ccccc1` [Example 50, (3-Fluorophenyl) methyl [R-(R*,S*)]-[1-(1H-indol-3-ylmethyl)-1-methyl-2-oxo-2-[(1-phenylethyl)amino]ethyl]carbamate], the IC50 on NK1 receptor [1] (setting [5]) is 120 nM.
The same measure, in the same setting: then `C[C@H](NC(=O)[C@@](C)(Cc1c[nH]c2ccccc12)NC(=O)OCc1ccc(F)cc1)c1ccccc1` [Example 51, (4-Fluorophenyl) methyl [R-(R*,S*)]-[1-(1H-indol-3-ylmethyl)-1-methyl-2-oxo-2-[(1-phenylethyl)amino]ethyl]carbamate], with 230 nM; and `C[C@H](NC(=O)[C@@](C)(Cc1c[nH]c2ccccc12)NC(=O)OCc1cccc(F)c1F)c1ccccc1` [Example 52, (2,3-Difluorophenyl) methyl [R-(R*,S*)]-[(1H-indol-3-methyl)-1-methyl-2-oxo-[(1-phenylethyl)amino]ethyl]carbamate], with 49 nM.
Same read-out and setting: to `C[C@H](NC(=O)C(Cc1n[nH]c2ccccc12)NC(=O)OCc1ccccc1)c1ccccc1` (stereo partly drawn) [Example 55, Phenylmethyl [R-(R*,S*)]and [S-(R*,R*)]-[1-(1H -indazol-3-ylmethyl-)-2-oxo-2-[(1-phenylethyl)amino]ethyl]carbamate] belongs above 1000 nM; to `C[C@H](NC(=O)C(Cc1c[nH]c2ccc(F)cc12)NC(=O)OCc1ccccc1)c1ccccc1` (stereo partly drawn) [Example 56, Phenylmethyl [R-(R*,S*)]and [S-(R*,R*)]-[1-[(5-fluoro-1H-indol-3-yl)methyl]-2-oxo-2-[(1-phenylethyl)amino]ethyl]carbamate], 3200 nM; to `CC(NC(=O)C(Cc1cn(C)c2ccccc12)NC(=O)OCc1ccccc1)c1ccccc1` (stereo not drawn) [Example 57, Phenylmethyl [1-(1-methyl-1H-indol-3-ylmethyl]-2-pxp-2-[(1-phenylethyl)amino]ethyl]carbamate], 3400 nM.
Same read-out and setting: to `C[C@H](NC(=O)[C@@H](Cc1ccc2ccccc2c1)NC(=O)OCc1ccccc1)c1ccccc1` [Example 58] belongs 1700 nM.
Consider `C[C@H](NC(=O)C(C)(Cc1csc2ccccc12)NC(=O)OCc1ccccc1)c1ccccc1` (stereo partly drawn) [Example 60, Phenylmethyl [1-(benzo[b]thien-3-ylmethyl)-1-methyl-2-oxo-2-[(1-phenylethyl)amino]ethyl]carbamate], for which the concentration for half-maximal inhibition (IC50) on NK1 receptor [1] (setting [5]) was above 1000 nM.
For the compound `C[C@H](NC(=O)[C@@](C)(Cc1c[nH]c2ccccc12)NC(=O)OCc1cc2ccccc2o1)c1ccncc1` [Example 66, Carbamic acid, [1-(1H-indol-3-ylmethyl)-1-methyl-2-oxo-2-[[1-(4-pyridinyl)ethyl]amino]ethyl]-, 2-benzofuranylmethyl ester, monohydrochloride, [R-(R*,S*)]], the ED50 at NK1 receptor [2] (setting [7]) was determined as 2.8 mg/kg.
Regarding `CN(Cc1ccccc1)C(=O)[C@H](Cc1c[nH]c2ccccc12)NC(=O)OCc1cc2ccccc2o1` [Example 67, Carbamic acid, [1-(1H-indol-3-ylmethyl)-2-[methyl (phenylmethyl)amino]-2-oxoethyl]-, 2-benzofuranylmethyl ester, (S)--], the ED50 on NK1 receptor [2] (setting [7]) came out at 0.91 mg/kg. Also, the Kb in assay [3] was 12.6 nM.
